From US20030018044A1, “Treatment of ocular disease” (priority 2000, published 2003)

Legend:
[1] = cited from earlier work
[2] = system: atopic dermatitis; details: topical, cited from earlier work
[3] = system: eye; test: ocular toxicity after direct intraocular injection; type: in vivo, patient
Source text: The toxicity of tacrolimus, which had been reported with tacrolimus administered systemically, was thought to limit its intraocular use. The toxicity of tacrolimus administered intraocularly had not been evaluated. Ocular toxicity may manifest as a gross and/or histologic retinal and/orvitreous toxic reaction. Evidence of such a toxic reaction may include one or more of white vitreous bodies, white vitreous opacities, electroretinography abnormalities such as reduction in mean B-wave amplitude in both scotopic and photopic conditions, occlusion of the temporal retinal vessels, and fibrin deposits.
As used herein, a lack of substantial toxicity encompasses both the absence of any manifestations of toxicity, as well as manifestations of toxicity which one skilled in the art would consider not sufficiently detrimental to decrease or cease treatment.
The intravenous solution form of tacrolimus may be diluted to achieve the indicated concentration using 0.9% NaCl or 5% dextrose, or an organic solvent such as dimethylsulfoxide (DMSO) or alcohol, preferably a low molecular weight alcohol. Intraocular administration may be any of the routes and formulations previously described. For injection, either a solution, emulsion, suspension of a liquid, capsular formulation of microspheres or liposomes, etc. may be used.

[4] = system: human skin mast cells; details: cited from earlier work

Structure (SMILES): C=CC[C@@H]1/C=C(\C)C[C@H](C)C[C@H](OC)[C@H]2O[C@@](O)(C(=O)C(=O)N3CCCC[C@H]3C(=O)O[C@H](/C(C)=C/[C@@H]3CC[C@@H](O)[C@H](OC)C3)[C@H](C)[C@@H](O)CC1=O)[C@H](C)C[C@@H]2OC [Tacrolimus]
- solubility in chloroform ([1]; chloroform): very soluble
- solubility in ethanol ([1]; ethanol): freely soluble
- solubility in methanol ([1]; methanol): very soluble
- solubility in water ([1]; water): practically insoluble
- adverse effects, treated versus control groups ([2]; concentrations up to 0.3%): no significant difference
- clinical improvement in atopic dermatitis ([2]; doses 0.03%-0.3%, after 2-3 weeks treatment): significant clinical improvement
- local tolerability [2]: well tolerated locally and only occasionally causes mild irritation
- dose of direct intraocular injection without substantial toxicity [3]: up to 250 μg
- anti-IgE-triggered histamine release [4]: inhibits
- prostaglandin D2 synthesis [4]: inhibits
